Measured values as given in article PMC7732531 (Frontiers in Pharmacology, 2020).

Tests used:
[1] = in vitro; settings: 1 µM
Method: The fraction of unbound YL-IPA08 in plasma and liver microsomes of rat and human, and brain homogenates of rat were determined utilizing Rapid Equilibrium Dialysis method ([Waters et al., 2008]). Rat brain homogenate was harvested in 4-fold volume (w/v) of PBS (pH 7.4). YL-IPA08 were spiked into fresh plasma, rat brain homogenate, liver microsomes (0.2 mg/ml protein) at concentration of 1 µM, and then dialyzed against […] on a shaker at 37°C for 4 h. To avoid the high non-specific binding of YL-IPA08, 0.01% Tween 80 was added in the incubation mixture. At the end of the incubation, protein was precipitated with acetonitrile (containing IS) and analyzed by LC-MS/MS. Phenacetin, quinidine, and warfarin were selected as positive control for the protein binding test.
The unbound fraction of YL-IPA08 in plasma or liver microsomes (ƒu,x) was calculated as shown in Eq. 2, and unbound fraction in the tissue homogenate (ƒu,b) was calculated according to Eq. 3. fu,x = Concbuffer chamber/Concplasma/liver microsomes chamber (2) fu,b = Concbuffer chamber/Concbrain homogenate chamber (3) The measured unbound fractions would be higher when a tissue is homogenized and diluted in buffer, the unbound fractions in an undiluted tissues (ƒu,brain) were calculated using Eq. 4 ([Kalvass and Maurer, 2002]). Undiluted fu,brain=1/D/((1/fu,brain homogenate)−1)+1/D (4) Where D represents the fold of dilution factor in brain homogenates. The free fraction of plasma and undiluted tissue is used in tissue-to-plasma exposure ratio calculation.

[2] = Transcellular transport experiment with Caco-2 cells; settings: human, Caco-2
Method: (§1) Caco-2 cell lines were cultured (ATCC, Manassas, VA, United States) as described previously ([Liu et al., 2014]). Briefly, the cells were cultured at 37°C in 5% CO2 at 90% humidity in DMEM high glucose medium containing 20% fetal bovine serum, 1% nonessential amino acids, 100 U/ml penicillin and 1% streptomycin. For the efflux studies, the cells were seeded onto polyethylene terephthalate Millicell® cell culture inserts (0.4 μm pore size, 6.5 mm diameter, Millipore Corporation, Billerica, MA, United States) at a density of 1.7 × 10^5 cells/ml. The culture medium was refreshed on the day after seeding, after which it was refreshed every other day and on the day before the transport experiment. The cells were cultured for 20–22 days after seeding and then evaluated by measuring the transepithelial electrical resistance (TEER) (Millicell ERS®, Millipore Corporation) before experiments. […] Transepithelial permeability studies for YL-IPA08 (10 μM) were conducted from apical to basolateral side (A-B) and basolateral to apical side (B-A) for 120 min 0.2% BSA was included in the receiver solution to avoid nonspecific binding. At 60, 90, and 120 min, half volume of solution from receiver side was withdrawn, and same volume of HBSS was immediately added. Obtained samples were precipitated by adding 4× volumes of acetonitrile containing IS and centrifuged. The supernatants were stored in −20°C until further analysis by LC-MS/MS.
(§2) The in vitro t1/2 in liver microsomal incubation was calculated from the semi-log plot of percentage remaining vs. incubation time and intrinsic clearance (Clint, ml/min/mg protein) was calculated as Eq. 1: CLint=0.693/in vitro t1/2×volume of incubation (μl)/amount of microsomal protein in incubation (mg) (1) ([Suzuki et al., 2003]).Apparent permeability was obtained according to the equation Papp = (dQ/dt)/(A × C0), where dQ/dt is the mass transport rate (determined from the slope of the amount transported vs. time plot), A is the surface area of the monolayer, and C0 is the initial concentration of YL-IPA08 in the donor chamber ([Suzuki et al., 2003]). The efflux ratio was calculated for each study using the following equation: […] = Papp(B–A)/Papp(A–B), where Papp(B–A) and Papp(A–B) represent apparent drug permeability in the B to A and A to B direction, respectively. An efflux ratio greater than 2 indicates net efflux.

[3] = test system: Caco-2 cells; test: as above; settings: for Concentration, A-B-A-90min / Concentration, A-B-B-90min: Caco-2, A→B; for Concentration, A-B-A-90min: apical (donor) side; for Concentration, A-B-B-90min: basolateral (receiver) side; for Concentration, B-A-A-90min / Concentration, B-A-B-90min: Caco-2, B→A; for Concentration, B-A-A-90min: apical (receiver) side; for Concentration, B-A-B-90min: basolateral (donor) side; for Concentration, DOA: Caco-2, apical donor at time 0; for Concentration, DOB: Caco-2, basolateral donor at time 0
Method: as §1, §2

SMILES | Protein biding (%) ([1]; rat, 4 h) | Papp A→B at 120 min, 10 μM [2] [×10⁻⁶ cm/s] | Papp B→A at 120 min, 10 μM [2] [×10⁻⁶ cm/s] | efflux ratio at 120 min, 10 μM [2] | Concentration, A-B-A-90min [3] [µM] | Concentration, A-B-B-90min [3] [µM] | Concentration, B-A-A-90min [3] [µM] | Concentration, B-A-B-90min [3] [µM] | Concentration, DOA [3] [µM] | Concentration, DOB [3] [µM] | Protein biding (%) ([1]; Rat plasma, dialysis 4 h)
CC(=O)CC(c1ccccc1)c1c(O)c2ccccc2oc1=O (stereo not drawn) [warfarin, reference compound] | 99.67 ± 0.08 |  |  |  |  |  |  |  |  |  | 
CC(C)NCC(O)COc1cccc2ccccc12 (stereo not drawn) [Propranolol] |  | 4.35 ± 2.06 | 2.78 ± 0.09 | 0.63 | 4.608 ± 0.43 | 0.079 ± 0.026 | 0.172 ± 0.019 | 7.267 ± 0.597 | 10.633 ± 2.369 | 10.367 ± 1.118 | 
C=C[C@H]1C[N@@]2CC[C@H]1C[C@@H]2[C@@H](O)c1ccnc2ccc(OC)cc12 [quinidine, reference compound] |  |  |  |  |  |  |  |  |  |  | 78.08 ± 4.49
C[C@H]1O[C@@H](O[C@H]2[C@@H](O)C[C@H](O[C@H]3[C@@H](O)C[C@H](O[C@H]4CC[C@@]5(C)[C@H](CC[C@@H]6[C@@H]5C[C@@H](O)[C@]5(C)[C@@H](C7=CC(=O)OC7)CC[C@]65O)C4)O[C@@H]3C)O[C@@H]2C)C[C@H](O)[C@@H]1O [Digoxin] |  | 0.45 ± 0.17 | 2.63 ± 0.7 | 6.25 | 8.117 ± 0.473 | 0.009 ± 0.002 | 0.203 ± 0.027 | 8.867 ± 0.388 | 11.683 ± 3.499 | 12.667 ± 2.619 | 
CCOc1ccc(NC(C)=O)cc1 [phenacetin, reference compound] |  |  |  |  |  |  |  |  |  |  | 58.48 ± 2.26
